Experimental data reported in the NIST ThermoML archive (doi:10.1021/je200215d).
Numbers after ± are expanded uncertainties.

Experiments:
[1] = for surface tension liquid-gas / mass density: 298.15 K; for surface tension liquid-gas: Maximal bubble pressure; for mass density: 101.33 kPa, Vibrating tube method; for mass density / vapor or sublimation pressure: Liquid; for vapor or sublimation pressure: Ebulliometric method (Recirculating still)
[2] = refractive index (Na D-line) (dimensionless); conditions: 298.15 K; 101.33 kPa; Liquid; Standard Abbe refractometry
[3] = xn = mol fraction of the nth substance listed; conditions: 303.15 K, Maximal bubble pressure

CCC(C)(C)OC [2-methoxy-2-methylbutane]
surface tension liquid-gas [1]: 22 ± 0.23 mN/m
mass density [1]: 765.8 ± 0.18 kg/m3
vapor or sublimation pressure ([1]; 359.52 K): 101.33 ± 0.21 kPa
refractive index [2]: 1.38712 ± 0.00072

CCC(C)(C)OC [2-methoxy-2-methylbutane] + CCO
surface tension liquid-gas ([3]; x2 = 0): 22 ± 0.26 mN/m
surface tension liquid-gas ([3]; x2 = 0.04): 21.97 ± 0.26 mN/m
surface tension liquid-gas ([3]; x2 = 0.071): 21.95 ± 0.26 mN/m
surface tension liquid-gas ([3]; x2 = 0.137): 21.93 ± 0.26 mN/m
surface tension liquid-gas ([3]; x2 = 0.198): 21.9 ± 0.26 mN/m
surface tension liquid-gas ([3]; x2 = 0.252): 21.88 ± 0.26 mN/m
surface tension liquid-gas ([3]; x2 = 0.303): 21.86 ± 0.26 mN/m
surface tension liquid-gas ([3]; x2 = 0.41): 21.84 ± 0.26 mN/m
surface tension liquid-gas ([3]; x2 = 0.508): 21.81 ± 0.26 mN/m
surface tension liquid-gas ([3]; x2 = 0.611): 21.78 ± 0.26 mN/m
surface tension liquid-gas ([3]; x2 = 0.708): 21.76 ± 0.26 mN/m
surface tension liquid-gas ([3]; x2 = 0.803): 21.73 ± 0.26 mN/m
surface tension liquid-gas ([3]; x2 = 0.898): 21.71 ± 0.26 mN/m

CCO [ethanol]
surface tension liquid-gas [1]: 21.7 ± 0.23 mN/m
mass density [1]: 785.05 ± 0.16 kg/m3
vapor or sublimation pressure ([1]; 351.45 K): 101.33 ± 0.21 kPa
refractive index [2]: 1.36068 ± 0.00072

CCO [ethanol] + CCC(C)(C)OC
surface tension liquid-gas ([3]; x1 = 1): 21.7 ± 0.26 mN/m
